Assay results from PubChem BioAssay (NCI).
Several values for one entry are separate records, joined by “and”; a condition that tells them apart may be missing. Identical values can stand only once.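 All cell lines were grown in 96-well plates and treated with compound for 48 hours. GI50: concentration for 50% inhibition of growth. TGI: concentration producing complete growth inhibition.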

Experiments:
Assay in all cases: NCI tumour cell line growth inhibition, 48 h
[1] = test system: NCI-H522 lung
[2] = test system: 786-0 renal
[3] = test system: SNB-75 CNS
[4] = test system: NCI-H226 lung
[5] = test system: SK-OV-3 ovarian
[6] = test system: T-47D breast
[7] = test system: SF-295 CNS
[8] = test system: BT-549 breast
[9] = test system: DU-145 prostate
[10] = test system: OVCAR-8 ovarian

Structure (SMILES)	TGI [1]	TGI [2]	TGI [3]	TGI [4]	TGI [5]	TGI [6]	TGI [7]	GI50 [8]	TGI [8]	TGI [9]	GI50 [10]	TGI [10]	GI50 [1]	GI50 [2] [µM]	GI50 [3]	GI50 [4]	GI50 [5]	GI50 [6]	GI50 [7]	GI50 [9] [µM]
CCc1nc(N)nc(N)c1-c1ccc(Cl)c(N=[N+]=[N-])c1	42.5 µM and 29.4 µM	> 77.8 µM and 45.2 µM	> 87.3 µM	> 100 µM	> 100 µM	> 96.2 µM	> 100 µM and 82 µM	6.14 µM and 15.2 µM	48.8 µM and 77.7 µM	> 100 µM	15.4 µM and 4.79 µM	> 100 µM								
COc1cnc2c(c1)C(=O)c1c-2n(CCCN2CCC(O)CC2)c(=O)c2cc(Cl)ccc12	2.02 µM	1.36 µM	24.6 µM	23.6 µM	17.5 µM	4.69 µM	1.67 µM	9.9 µM	25.9 µM	1.71 µM	0.665 µM	3.53 µM	0.11 µM	0.28	10.4 µM	0.662 µM	0.341 µM	0.656 µM	0.165 µM	0.279
COc1ccc(NCC(=O)Nn2c(-c3ccccc3)nc3ccccc3c2=O)cc1	> 10 µM	73.6 µM	> 100 µM	> 100 µM	> 100 µM	> 100 µM	> 100 µM		65.4 µM	> 100 µM		> 100 µM								
CC1SC2(CCCCC2)N(NC(=O)c2[nH]c3ccc(Br)cc3c2-c2ccccc2)C1=O (stereo not given)	> 100 µM	98.4 µM	90 µM	> 100 µM	> 100 µM	> 100 µM	46.7 µM	> 100 µM	> 100 µM	> 100 µM	17 µM	53.8 µM	6.78 µM	17.5	22.6 µM	40.7 µM	> 100 µM	20.5 µM	10.7 µM	> 100
CC(C)(C)OC(=O)NCc1cccc(N=C=S)c1	44.1 µM	44.1 µM	> 59.6 µM	51.4 µM	> 84.9 µM	36.6 µM	40.9 µM	19.2 µM	44.2 µM	59.2 µM	29.6 µM	> 92.7 µM	17.4 µM	21.6	14.1 µM	19.1 µM	35.5 µM	16.5 µM	17.5 µM	22.7
c1ccc2c(c1)cc1n2CCc2c-1[nH]c1ccccc21	> 10 µM	> 10 µM	> 10 µM	> 10 µM	> 10 µM	> 10 µM	> 10 µM		> 10 µM	> 10 µM		> 10 µM								
COc1cc(Cl)cc(-c2nn(-c3cccc(NC(=O)Nc4ccc(Cl)c(Cl)c4)c3)cc2-c2ccncc2)c1	4.48 µM	7.84 µM	48.6 µM	> 100 µM	87 µM	18.9 µM	7.21 µM	2.62 µM	8.28 µM	> 100 µM	2.3 µM	11.2 µM	1.29 µM	2.31	2.11 µM	3.06 µM	3.6 µM	2.78 µM	1.77 µM	3.85
CCCCOC1OC(COC(=O)C(C)C)C(OC(=O)C(C)C)C(O)C1OC1OC(C)C(OC(=O)CCC)C(OC(=O)C(C)C)C1O (stereo not given)	39.6 µM	26.9 µM	31.4 µM	22.2 µM	34 µM	35.3 µM	27.5 µM	22.1 µM	37.7 µM	29.8 µM	19.6 µM	37.8 µM	19.1 µM	14	17.6 µM	9.64 µM	19.8 µM	15 µM	14.4 µM	16.3
CCSC[C@@H]1C[C@](O)(c2ccc(F)cc2)[C@@H](c2ccc(F)cc2)O1	49.3 µM	31.1 µM	31.1 µM	38.8 µM	38 µM	35.8 µM	31.6 µM	16.8 µM	30.9 µM	28.4 µM	23.6 µM	> 64.6 µM	18.4 µM	16.4	16.3 µM	17.8 µM	18.3 µM	15 µM	15.3 µM	15.1
COC(=O)[C@H](Cc1cn(C)cn1)NC(=O)[C@H](C)NC(=O)Nc1cc(C(F)(F)F)cc(C(F)(F)F)c1	> 10 µM	> 10 µM	> 10 µM	> 10 µM	> 10 µM	> 10 µM	> 10 µM	> 10 µM	> 10 µM	> 10 µM	> 10 µM	> 10 µM	> 10 µM	> 10	> 10 µM	> 10 µM	> 10 µM	7.58 µM	> 10 µM	> 10
Cn1cc(C2=C(Nc3ccccc3)C(=O)NC2=O)c2ccccc21	> 25 µM	> 25 µM	> 25 µM	> 25 µM	> 25 µM	> 25 µM	> 25 µM	> 25 µM	> 25 µM	> 25 µM	> 25 µM	> 25 µM	24.6 µM	> 25	> 25 µM	> 25 µM	> 25 µM	16.2 µM	> 25 µM	> 25
COC1CC(N)C(O)C(C)O1 (stereo not given)	> 100 µM	> 100 µM	> 100 µM	> 100 µM	> 100 µM	> 100 µM	> 100 µM		> 100 µM	> 100 µM		> 100 µM								
Cc1cc(Cl)ccc1C(=O)c1ccc2ccccc2c1C(=O)O	> 100 µM	> 100 µM	> 100 µM	> 100 µM		> 100 µM	> 100 µM		> 100 µM	> 100 µM		> 100 µM								
COc1cc2c(c(OC)c1OC)-c1ccc(N=NC(N)=S)c(=O)cc1[C@@H](NC(C)=O)CC2				> 29.4 µM		> 100 µM	> 100 µM	0.624 µM	> 100 µM	4.66 µM	2.19 µM	> 100 µM	0.354 µM	1.69	0.256 µM	2.01 µM	0.43 µM	0.361 µM	1.45 µM	0.655
Cc1ccc(-n2nnnc2-c2cnc(N3CCOCC3)nc2-c2cccc(C(F)(F)F)c2)cc1	> 12.9 µM	> 50 µM	3.98 µM	10.8 µM	> 13.3 µM	> 15.6 µM	3.65 µM	8.3 µM	31.3 µM	16.9 µM	2.83 µM	> 22.5 µM	1.89 µM	1.89	1.6 µM	1.51 µM	1.48 µM	2.31 µM	1.1 µM	1.62
C[C@@H](CO)NC(=O)c1cc(-c2ccc(Cl)cc2)nn(-c2cnn(C)c2)c1=O	35.7 µM	> 100 µM	78.1 µM	35.1 µM	> 100 µM	> 100 µM	50.7 µM	23.7 µM	86.9 µM	> 100 µM	26.3 µM	> 100 µM	14.4 µM	23.9	16.7 µM	16.4 µM	82.6 µM	25.9 µM	16.4 µM	29.6
CC(=O)/C=C/c1ccc(OCc2ccc(Cl)cc2)cc1	> 1000 µM	> 1000 µM	> 1000 µM	> 1000 µM	> 1000 µM	> 1000 µM	> 1000 µM	136 µM	> 1000 µM	> 1000 µM	613 µM	> 1000 µM	295 µM	718	457 µM	> 1000 µM	> 1000 µM	182 µM	679 µM	636
COC(=O)c1cc(OC)c(OC)c(OC)c1-c1cc2c(cc1C=O)OCO2	> 10 µM	> 10 µM	> 10 µM	> 10 µM	> 10 µM	> 10 µM	> 10 µM		> 10 µM	> 10 µM		> 10 µM								
CC(=O)OC1=CC2(OC(C)=O)CC(C)(C)C1C1C(=O)C=CC(=O)C12 (stereo not given)	> 52.4 µM	> 81.7 µM	> 100 µM	> 100 µM	> 100 µM	> 100 µM	> 100 µM		32.3 µM	> 100 µM		> 100 µM								
COc1ccc(CCN2CCC(CN(C)Cc3cnn(-c4ccccc4)c3)CC2)cc1	19 µM	24.6 µM	21.2 µM	> 100 µM	39.9 µM	30.7 µM	25.2 µM	14.5 µM	36.2 µM	> 100 µM	16.5 µM	37.5 µM	4.54 µM	12	8.83 µM	32.5 µM	16.2 µM	10.4 µM	12.1 µM	37
CC(=O)Nc1n[n+]([O-])c2cc(C)ccc2[n+]1[O-]	5.53 µM	17.5 µM	12 µM	27.8 µM	20.3 µM	11.4 µM	12.6 µM		14.2 µM	18.4 µM		16.3 µM								
Cc1cc(O)c(C2=NN(c3ccc(S(N)(=O)=O)cc3)C(/C=C/c3ccccc3)C2)cc1Cl (stereo not given)	19.4 µM	12.5 µM	16.1 µM	19.2 µM	17.9 µM	14.7 µM	11.9 µM	6.12 µM	21.3 µM	38.6 µM	3.03 µM	20.2 µM	4.62 µM	4.09	3.39 µM	5.21 µM	5.52 µM	3.38 µM	2.36 µM	14.1
CC1(C)O[C@@H]2C[C@H]3[C@@H]4C[C@H](F)C5=CC(=O)C=C[C@]5(C)[C@@]4(F)[C@@H](O)C[C@]3(C)[C@]2(C(=O)CO)O1	> 100 µM	> 100 µM	> 100 µM	> 100 µM	> 100 µM	> 100 µM	> 100 µM		> 100 µM	> 100 µM		> 100 µM								
C=Cn1c([N+](=O)[O-])cnc1/C=C/c1ccc(C(=O)OCCN2CCOCC2)cc1	> 100 µM	> 100 µM	> 100 µM	> 100 µM	> 100 µM	> 100 µM	> 100 µM		> 100 µM	> 100 µM		> 100 µM								
COC(=O)C(C(=O)OC)C(Br)C(Br)C(Br)c1ccccc1 (stereo not given)	3.33 µM	25.3 µM	25 µM	29.5 µM	72.3 µM	4.92 µM	37.3 µM	14.4 µM	27.9 µM	23 µM	4.86 µM	17.2 µM	1.69 µM	11.9	12.5 µM	15.1 µM	23.6 µM	2.03 µM	18.9 µM	10.6
Cc1[nH]c2cc(F)ccc2c1-c1nc2c3cccnc3c3ncccc3c2[nH]1	1.46 µM	0.973 µM	1.84 µM	0.812 µM		1.28 µM	0.818 µM	0.215 µM	1.57 µM	1.8 µM	0.216 µM	1.22 µM	0.391 µM	0.243	0.473 µM	0.168 µM		0.341 µM	0.253 µM	0.191
CC(=O)O[C@H]1CC[C@@]2(C)C(=C/C(=N/OCCN3CCCC3)[C@H]3[C@@H]4CC[C@H](OC(C)=O)[C@@]4(C)CC[C@@H]32)C1	> 100 µM	> 100 µM	> 100 µM	> 100 µM	> 100 µM	> 100 µM	66.1 µM	53.4 µM	> 100 µM	> 100 µM	> 100 µM	> 100 µM	47.5 µM	30.8	68 µM	> 100 µM	40.8 µM	52.1 µM	26.1 µM	> 100
COc1ccc2c(c1)-c1nn(CCCN(C)C)c3ccc([N+](=O)[O-])c(c13)N2	1.03 µM and 2.26 µM	7.68 µM and 12.2 µM	1.02 µM and 3.85 µM	3.75 µM and 6.86 µM	1.86 µM and 7.69 µM	11.4 µM and 2.27 µM	3.76 µM and 3.07 µM		7.19 µM	4.72 µM and 2.86 µM		4.19 µM and 5.06 µM	0.117 µM and 0.385 µM		0.197 µM and 0.573 µM	0.25 µM and 0.664 µM	0.175 µM and 0.866 µM	0.668 µM and 0.308 µM	0.175 µM and 0.389 µM	
CCOc1ccc2c(c1)c(CC(=O)O)cn2C	> 100 µM	> 100 µM		> 100 µM	> 100 µM	> 100 µM	> 100 µM		> 100 µM	> 100 µM		> 100 µM								
